Test results as given in patent US20160052926A1, “NOVEL PYRIMIDINE AND PYRIDINE COMPOUNDS AND USAGE THEREOF” (HUTCHISON MEDIPHARMA LIMITED, priority 2013, published 2016).

Columns and labels:
FGFR3 kinase = FGFR3 kinase (Homo sapiens, UniProt P22607); experiment: Z-Lyte Kinase Assay of FGFR3; format: biochemical
Summary of the method: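 FRET peptide-cleavage format: 1 h kinase reaction at RT (25-30[…]), then 1 h protease development, then stop and dual-emission read (Ex400, Em445/520 nm). Working solutions: kinase 0.7 μg/ml, Tyr 4 peptide 4 μM, ATP 300 uM in 1.33× buffer; eight compound concentrations from 1 μM, 2% DMSO final.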

Recombinant human FGFR1 = Recombinant human FGFR1 (Homo sapiens, UniProt P11362); experiment: Transcreener Kinase Assay of FGFR1; format: biochemical; conditions: read-out: FGFR1 (FP) IC50
RT-112 = experiment: Cellular Proliferation Assay (Cell Counting Kit-8), RT-112; format: cell-based; conditions: Homo sapiens, RT-112 cells, 72 hours
Method: Cellular Proliferation Assay
• KG-1 (ATCC Accession No. CCL-246), • SNU-16 (ATCC Accession No. CRL-5974), • RT-112 (ECACC Accession No. 85061106)
• FGFR related cancer cell proliferation is measured in 96-well plates using Cell Counting Kit-8 (Dojindo CK04-13). • Seed 30000 cells/well of KG1, 5000 cells/well of SNU16, and 1000 cells/well of RT112 in a volume of 100 μL/well in growth media. • After 24 hours, dilute the compound to 10, 3.3, 1.1, 0.37, 0.12, 0.04, 0.013, 0.004 μM, keeping the DMSO concentration at 5%. • Add 10 μL of 8-point compound series to the wells of culturing cells. • Incubate at 37° C. and 5% CO2 for 72 hours • Add 10 μL/well of CCkit8 and incubate at 37° C. and 5% CO2 for an hour • Detect the optical density of each well at 450 nm on Labsystems Multiskan K3.
• ODcompound well represents the optical density of cells treated with compound. • ODcell well represents the optical density of cells without compounds treatment. (only 0.5% DMSO) • ODcontrol well represents the optical density of culture media background
The concentration of compound providing 50% of proliferation inhibition was calculated using Excel Fit.

Recombinant human FGFR2 = Recombinant human FGFR2 (Homo sapiens, UniProt P21802); experiment: Transcreener Kinase Assay of FGFR2; format: biochemical; conditions: read-out: FGFR2 (FP) IC50
SNU-16 = experiment: Cellular Proliferation Assay (Cell Counting Kit-8), SNU-16; format: cell-based; conditions: Homo sapiens, SNU-16 cells, 72 hours
Summary of the method: (§1)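 Proliferation was read as OD at 450 nm after 1 h with CCK-8, following 72 h drug exposure at 37 °C, 5% CO2. Inhibition was calculated against cells in 0.5% DMSO minus medium blank, and the 50% point reported. The compound series (10–0.004 μM, pre-addition, in 5% DMSO) was added one day after plating KG-1, SNU-16 and RT-112 at 30,000, 5,000 and 1,000 cells/well respectively.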

KG-1 = experiment: Cellular Proliferation Assay (Cell Counting Kit-8), KG-1; format: cell-based; conditions: Homo sapiens, KG1 cells, 72 hours
Summary of the method: as §1

FGFR3 kinase, sequence (P22607 23-806): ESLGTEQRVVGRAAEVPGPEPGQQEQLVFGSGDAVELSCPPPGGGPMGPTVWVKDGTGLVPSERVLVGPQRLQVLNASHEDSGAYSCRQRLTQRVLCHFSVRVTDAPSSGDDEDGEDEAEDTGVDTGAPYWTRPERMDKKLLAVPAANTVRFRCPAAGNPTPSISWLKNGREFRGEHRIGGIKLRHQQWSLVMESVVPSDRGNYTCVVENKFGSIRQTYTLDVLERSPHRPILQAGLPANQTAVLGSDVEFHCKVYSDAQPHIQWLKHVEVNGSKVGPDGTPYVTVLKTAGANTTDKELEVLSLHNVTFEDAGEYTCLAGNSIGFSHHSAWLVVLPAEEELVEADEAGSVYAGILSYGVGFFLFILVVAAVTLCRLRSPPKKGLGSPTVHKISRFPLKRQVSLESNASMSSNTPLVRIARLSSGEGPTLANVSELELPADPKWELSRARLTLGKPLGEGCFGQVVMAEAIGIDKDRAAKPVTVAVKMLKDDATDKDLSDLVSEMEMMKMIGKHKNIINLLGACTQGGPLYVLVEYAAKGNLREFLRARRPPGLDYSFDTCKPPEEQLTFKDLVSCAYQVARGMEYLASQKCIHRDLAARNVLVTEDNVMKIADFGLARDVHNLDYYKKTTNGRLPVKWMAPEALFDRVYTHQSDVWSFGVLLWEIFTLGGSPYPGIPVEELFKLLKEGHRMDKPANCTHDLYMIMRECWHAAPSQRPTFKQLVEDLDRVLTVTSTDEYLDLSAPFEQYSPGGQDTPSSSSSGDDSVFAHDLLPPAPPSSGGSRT
Recombinant human FGFR2, sequence (P21802 22-821): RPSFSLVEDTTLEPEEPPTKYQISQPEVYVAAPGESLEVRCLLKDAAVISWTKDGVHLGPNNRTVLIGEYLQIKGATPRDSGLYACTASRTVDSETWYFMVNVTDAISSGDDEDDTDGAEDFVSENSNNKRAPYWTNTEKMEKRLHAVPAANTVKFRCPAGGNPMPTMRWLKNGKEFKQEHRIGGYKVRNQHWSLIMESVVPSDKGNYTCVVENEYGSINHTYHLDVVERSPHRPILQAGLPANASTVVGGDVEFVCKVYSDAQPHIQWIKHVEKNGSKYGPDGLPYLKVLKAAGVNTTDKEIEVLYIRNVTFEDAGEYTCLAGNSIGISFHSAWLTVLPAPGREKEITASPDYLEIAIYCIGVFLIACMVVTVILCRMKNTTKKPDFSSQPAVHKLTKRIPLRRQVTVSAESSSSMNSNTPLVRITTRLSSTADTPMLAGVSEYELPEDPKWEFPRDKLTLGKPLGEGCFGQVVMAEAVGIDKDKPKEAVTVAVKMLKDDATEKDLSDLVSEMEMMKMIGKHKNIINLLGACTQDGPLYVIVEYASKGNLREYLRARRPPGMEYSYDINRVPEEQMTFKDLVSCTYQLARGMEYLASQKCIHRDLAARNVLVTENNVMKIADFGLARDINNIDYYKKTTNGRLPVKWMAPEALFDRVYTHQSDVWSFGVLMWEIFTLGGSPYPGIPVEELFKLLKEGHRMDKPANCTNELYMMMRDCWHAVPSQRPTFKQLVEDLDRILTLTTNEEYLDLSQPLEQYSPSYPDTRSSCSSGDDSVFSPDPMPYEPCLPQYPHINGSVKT
Recombinant human FGFR1, sequence (P11362 22-822): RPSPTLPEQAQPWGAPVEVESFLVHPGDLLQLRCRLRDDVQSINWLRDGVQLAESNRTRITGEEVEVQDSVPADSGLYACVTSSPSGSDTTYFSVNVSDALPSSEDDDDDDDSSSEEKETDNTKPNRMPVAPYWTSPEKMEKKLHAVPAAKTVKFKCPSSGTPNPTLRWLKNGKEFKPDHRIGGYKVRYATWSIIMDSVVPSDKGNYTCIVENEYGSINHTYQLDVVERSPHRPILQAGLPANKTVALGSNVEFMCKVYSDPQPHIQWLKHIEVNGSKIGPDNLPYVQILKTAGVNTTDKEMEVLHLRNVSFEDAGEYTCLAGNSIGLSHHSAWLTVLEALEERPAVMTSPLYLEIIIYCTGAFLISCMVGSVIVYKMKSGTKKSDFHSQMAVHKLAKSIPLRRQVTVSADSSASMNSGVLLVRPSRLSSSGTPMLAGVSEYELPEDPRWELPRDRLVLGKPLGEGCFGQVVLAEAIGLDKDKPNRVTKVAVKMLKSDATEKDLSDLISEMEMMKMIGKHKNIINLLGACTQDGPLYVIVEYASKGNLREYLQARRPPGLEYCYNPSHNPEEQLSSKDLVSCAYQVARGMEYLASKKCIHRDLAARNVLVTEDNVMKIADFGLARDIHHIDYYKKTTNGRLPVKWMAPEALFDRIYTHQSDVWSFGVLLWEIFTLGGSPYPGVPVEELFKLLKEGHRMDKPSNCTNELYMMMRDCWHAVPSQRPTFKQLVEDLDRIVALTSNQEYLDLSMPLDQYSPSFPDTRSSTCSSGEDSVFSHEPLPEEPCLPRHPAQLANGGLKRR

| IC50 (FGFR3 kinase) | IC50 (Recombinant human FGFR1) | IC50 (Recombinant human FGFR2) | IC50 (SNU-16) | Compound | IC50 (RT-112) | IC50 (KG-1) |
| --- | --- | --- | --- | --- | --- | --- |
| 28 nM | 24 nM | 19 nM | 95 nM | CCN1CCN(c2ccc(Nc3ncc(CCc4cc(OC)cc(C(=O)NC)c4)cn3)cc2)CC1 [Compound 1, 3-(2-(2-((4-(4-ethylpiperazin-1-yl)phenyl)amino)pyrimidin-5-yl)ethyl)-5-methoxy-N-methylbenzamide] | 612 nM | 49 nM |
| 47 nM | 32 nM | 21 nM | 139 nM | CNC(=O)c1cc(CCc2ccc(Nc3cnn(C)c3)nc2)c(F)c(OC)c1 [Compound 103] | 659 nM | 138 nM |
| 32 nM | 37 nM | 13 nM | 52 nM | CNC(=O)c1cc(CCc2cnc(Nc3ccc(N4CCCCC4=O)cc3)nc2)c(F)c(OC)c1 [Compound 145, 4-fluoro-3-methoxy-N-methyl-5-(2-(2-(4-(2-oxopiperidin-1-yl)phenylamino)pyrimidin-5-yl)ethyl)benzamide] | 260 nM | 154 nM |
| 40 nM | 29 nM | 10 nM | 68 nM | CNC(=O)c1cc(CCc2cnc(Nc3ccc(OC)nc3)nc2)c(F)c(OC)c1 [Compound 30] | 241 nM | 55 nM |
| 21 nM | 18 nM | 9 nM | 53 nM | CNC(=O)c1cc(COc2cnc(Nc3ccc(O)cc3)nc2)c(F)c(OC)c1 [Compound 211] | 163 nM | 84 nM |
| 12 nM | 14 nM | 7 nM | 17 nM | CNC(=O)c1cc(CCc2cnc(Nc3ccc(CN4CCN(C)CC4)cc3)nc2)c(F)c(OC)c1 [Compound 99] | 110 nM | 30 nM |
| 17 nM | 15 nM | 7 nM | 31 nM | CNC(=O)c1cc(CCc2cnc(Nc3cnn(CCOC)c3)nc2)c(F)c(OC)c1 [Compound 120] | 165 nM | 32 nM |
| 591 nM | 126 nM | 53 nM | 708 nM | CNC(=O)c1cc(CCc2cnc(Nc3nc(C4CC4)cs3)nc2)c(Cl)c(OC)c1 [Compound 71] | 101 nM | 398 nM |
| 15 nM | 9 nM | 6 nM | 18 nM | CNC(=O)c1cc(CCc2cnc(Nc3cnn(C(C)C)c3)nc2)c(Cl)c(OC)c1 [Compound 121] | 65 nM | 7 nM |
| 203 nM | 41 nM | 7 nM | 100 nM | CNC(=O)c1cc(CCc2cnc(Nc3cnn(CC(=O)N4CCCC4)c3)nc2)c(F)c(OC)c1 [Compound 143] | 991 nM | 803 nM |
| 8 nM | 12 nM | 6 nM | 22 nM | CNC(=O)c1cc(CCc2cnc(Nc3cnn(CCN4CCOCC4)c3)nc2)c(F)c(OC)c1 [Compound 139] | 146 nM | 64 nM |
| 14 nM | 12 nM | 5 nM | 88 nM | CNC(=O)c1cc(CCc2cnc(Nc3cnn(CCO)c3)nc2)c(F)c(OC)c1 [Compound 114] | 591 nM | 71 nM |
| 9 nM | 12 nM | 5 nM | 16 nM | CNC(=O)c1cc(CCc2cnc(Nc3cnn(CC4CCN(C)CC4)c3)nc2)c(Cl)c(OC)c1 [Compound 154] | 21 nM | 370 nM |
| 61 nM | 107 nM | 33 nM | 127 nM | CCn1cc(Nc2ncc(CCc3cc(C(=O)NC)cc(OC)c3F)cn2)c(C)n1 [Compound 111] | 570 nM | 162 nM |
| 34 nM | 23 nM | 12 nM | 29 nM | CNC(=O)c1cc(CCc2cnc(Nc3cnn(CC(C)C)c3)nc2)c(F)c(OC)c1 [Compound 118] | 220 nM | 26 nM |
| 9 nM | 19 nM | 5 nM | 8 nM | CCn1cc(Nc2ncc(OCc3cc(C(=O)NC)cc(OC)c3F)cn2)cn1 [Compound 181, 3-(((2-((1-ethyl-1H-pyrazol-4-yl)amino)pyrimidin-5-yl)oxy)methyl)-4-fluoro-5-methoxy-N-methylbenzamide] | 35 nM | 26 nM |
| 7 nM | 11 nM | 7 nM | 23 nM | CNC(=O)c1cc(CCc2cnc(Nc3cnn([C@@H]4CCCN(C)C4)c3)nc2)c(F)c(OC)c1 [Compound 165, (R)-4-fluoro-3-methoxy-N-methyl-5-(2-(2-(1-(1-methylpiperidin-3-yl)-1H-pyrazol-4-ylamino)pyrimidin-5-yl)ethyl)benzamide] | 106 nM | 56 nM |
| 14 nM | 12 nM | 10 nM | 19 nM | CNC(=O)c1cc(CCc2cnc(Nc3cnn(C)c3)nc2)c(Cl)c(OC)c1 [Compound 146] | 142 nM | 9 nM |
| 15 nM | 18 nM | 10 nM | 48 nM | CCN1CC(n2cc(Nc3ncc(CCc4cc(C(=O)NC)cc(OC)c4F)cn3)cn2)C1 [Compound 167] | 382 nM | 62 nM |
| 8 nM | 9 nM | 6 nM | 14 nM | CCN1CCC[C@H](n2cc(Nc3ncc(CCc4cc(C(=O)NC)cc(OC)c4F)cn3)cn2)C1 [Compound 175] | 57 nM | 23 nM |
| 20 nM | 28 nM | 19 nM | 29 nM | CNC(=O)c1cc(CCc2cnc(Nc3cnn(CCN(C)C)c3)nc2)c(F)c(OC)c1 [Compound 125] | 750 nM | 30 nM |
| 23 nM | 16 nM | 7 nM | 46 nM | CNC(=O)c1cc(CCc2cnc(Nc3ccnc(C)c3)nc2)c(F)c(OC)c1 [Compound 60, 4-fluoro-3-methoxy-N-methyl-5-(2-(2-((2-methylpyridin-4-yl)amino)pyrimidin-5-yl)ethyl)benzamide] | 137 nM | 51 nM |
| 6 nM | 12 nM | 6 nM | 10 nM | CNC(=O)c1cc(CCc2cnc(Nc3cnn(C4CCOCC4)c3)nc2)c(F)c(OC)c1 [Compound 132] | 59 nM | 20 nM |
| 16 nM | 20 nM | 8 nM | 51 nM | CNC(=O)c1cc(CCc2cnc(Nc3cnn(CCCN(C)C)c3)nc2)c(F)c(OC)c1 [Compound 133] | 713 nM | 345 nM |
| 15 nM | 16 nM | 11 nM | 16 nM | CNC(=O)c1cc(CCc2cnc(Nc3cnn([C@H]4CCN(C)C4)c3)nc2)c(F)c(OC)c1 [Compound 168] | 414 nM | 32 nM |
| 16 nM | 15 nM | 7 nM | 59 nM | CNC(=O)c1cc(CCc2cnc(Nc3cnn(CCS(C)(=O)=O)c3)nc2)c(Cl)c(OC)c1 [Compound 153] | 240 nM | 177 nM |
| 4 nM | 10 nM | 4 nM | 18 nM | CCN1CCC(Cn2cc(Nc3ncc(CCc4cc(C(=O)NC)cc(OC)c4Cl)cn3)cn2)CC1 [Compound 155] | 12 nM | 461 nM |
| 33 nM | 20 nM | 9 nM | 49 nM | CNC(=O)c1cc(CCc2cnc(Nc3ccnc(OC)c3)nc2)c(F)c(OC)c1 [Compound 62] | 152 nM | 46 nM |
| 29 nM | 14 nM | 15 nM | 132 nM | CCONC(=O)c1cc(CCc2cnc(Nc3ccc(N4CCN(CC)CC4)cc3)nc2)cc(OC)c1 [Compound 50] | 352 nM | 45 nM |
| 17 nM | 15 nM | 8 nM | 18 nM | CNC(=O)c1cc(CCc2cnc(Nc3cnn(CCCOC)c3)nc2)c(F)c(OC)c1 [Compound 126] | 112 nM | 45 nM |
